One test deals with SUDHL5 cells. Briefly: Induction of caspase-3/7 activity in SUDHL5 cells (Assay 4). It counts as cell-based. In a few lines: (§1)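 Caspase-3/7 activity measured in DLBCL lines after 3 h compound exposure at 37 °C, following overnight plating; Caspase-Glo 3/7 luminescence read after 1 h at 37 °C. Medium-only background subtracted, values normalized to mean of DMSO-treated cells.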

Another test concerns the target BCL-2 (Homo sapiens (Human), UniProt P10415). Briefly: Protein-protein interaction assay BCL-2/Bad BH3 peptide (BCL-2 assay, TR-FRET). Type of test: binding. As to conditions: read-out: BCL-2 Assay IC50 (median). In a few lines: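 His-tagged BCL-2 (aa 1-211, E. coli, 1 nM) preincubated 10 min at 22° C with compound (0.1 nM-20 μM), then 1 nM biotinylated Bad BH3 peptide with anti-His-Eu/streptavidin-XL665 added. Buffer: 50 mM Tris pH 7, 100 mM NaCl, 50 mM KF, 2 mM DTT. Incubated 1 h at 22° C, then overnight at 4° C. 665/620 ratio normalized; IC50 by 4-parameter fit.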
On the technique in general: In TR-FRET formats the signal depends on donor and acceptor labels being close together.

The subject of another test is AMO-1 cells. Briefly: Antiproliferation assay AMO-1 (Assay 7). It counts as cell-based. In a few lines:
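72 h antiproliferation, 37 °C, CellTiter-Glo luminescence. Day 0 plate = CI; DMSO = C0; IC50 calculated from these.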

A further test concerns SUDHL10 cells. Briefly: Induction of caspase-3/7 activity in SUDHL10 cells (Assay 4). Type of test: cell-based. In a few lines:
as §1

The mark [1] stands for this setting: Homo sapiens, SU-DHL-5, 3 h, caspase-3/7 induction, 3 h, read-out: Caspase SUDHL5 EC50 (median).
[2] abbreviates: Homo sapiens, AMO1, 72 h, 72 h, CellTiter-Glo, read-out: Antiproli AMO-1 IC50 median.
Setting [3] is: Homo sapiens, SU-DHL10, 3 h, caspase-3/7 induction, 3 h, read-out: Caspase SUDHL10 EC50 (median).
The mark [4] stands for this setting: read-out: Caspase SUDHL5 EC50 (median), caspase-3/7 induction, 3 h.
The mark [5] stands for this setting: read-out: Antiproli AMO-1 IC50 median, 72 h, CellTiter-Glo.
The mark [6] stands for this setting: read-out: Caspase SUDHL10 EC50 (median), caspase-3/7 induction, 3 h.
Setting [7] is: Homo sapiens, SU-DHL-5, 3 h, read-out: Caspase SUDHL5 EC50 (median), caspase-3/7 induction, 3 h.
The mark [8] stands for this setting: Homo sapiens, AMO1, 72 h, read-out: Antiproli AMO-1 IC50 median, 72 h, CellTiter-Glo.
[9] abbreviates: Homo sapiens, SU-DHL10, 3 h, read-out: Caspase SUDHL10 EC50 (median), caspase-3/7 induction, 3 h.

Molecules are shown by their SMILES. Structures can show the parent of a compound that is named as a salt. Where two headings read alike, the source gives them in different places.

Sequence of BCL-2 (P10415 1-211): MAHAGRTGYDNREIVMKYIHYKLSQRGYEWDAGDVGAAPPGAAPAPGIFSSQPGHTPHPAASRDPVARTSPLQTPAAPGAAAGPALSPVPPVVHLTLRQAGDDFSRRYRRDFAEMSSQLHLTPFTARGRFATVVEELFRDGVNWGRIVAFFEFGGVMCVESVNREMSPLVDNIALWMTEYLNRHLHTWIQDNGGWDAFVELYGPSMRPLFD

In general, IC50 refers to the concentration that inhibits the measured activity by half. As for `CCc1c2c(nn1C)C(CCO)OCCCCn1c(C(=O)O)c(CCCOc3cccc4cc(F)ccc34)c3ccc(Cl)c-2c31` (racemic) [Example 44, (rac)-4-chloro-3-ethyl-7-{3-[(6-fluoronaphthalen-1-yl)oxy]propyl}-(15-rac)-(2-hydroxyethyl)-2-methyl-2,10,11,12,13,15-hexahydropyrazolo[4′,3′:9,10][1,6]oxazacycloundecino[8,7,6-hi]indole-8-carboxylic Acid], the values for the EC50 in the test with SUDHL5 cells (setting [1]) and in the test on SUDHL10 cells (setting [3]) were 120 nM and 150 nM, respectively. The values for the IC50 at BCL-2 and with AMO-1 cells (setting [2]) were greater than 20000 nM and 161 nM, respectively.

`CCc1c2c(nn1C)C(CCN1CCOCC1)OCCCCn1c(C(=O)O)c(CCCOc3cccc4cc(F)ccc34)c3ccc(F)c-2c31` (racemic) [Example 49, (rac)-3-Ethyl-4-fluoro-7-{3-[(6-fluoronaphthalen-1-yl)oxy]propyl}-2-methyl-(15-rac)-[2-(morpholin-4-yl)ethyl]-2,10,11,12,13,15-hexahydropyrazolo[4′,3′:9,10][1,6]oxazacycloundecino[8,7,6-hi]indole-8-carboxylic Acid]: the EC50 is 33 nM in the test on SUDHL5 cells (setting [1]) and 21 nM in the test on SUDHL10 cells (setting [3]). Further, the values for the IC50 on BCL-2 and in the test with AMO-1 cells (setting [2]) were greater than 20000 nM and 76.7 nM, respectively.

For `CCc1c2c(nn1C)C(CCC(C)(C)O)OCCCCn1c(C(=O)O)c(CCCOc3cccc4cc(F)ccc34)c3ccc(Cl)c-2c31` (racemic) [Example 74, (rac)-4-chloro-3-ethyl-7-{3-[(6-fluoronaphthalen-1-yl)oxy]propyl}-(15-rac)-(3-hydroxy-3-methylbutyl)-2-methyl-2,10,11,12,13,15-hexahydropyrazolo[4′,3′:9,10][1,6]oxazacycloundecino[8,7,6-hi]indole-8-carboxylic Acid], the EC50 was determined as 45 nM in the test on SUDHL5 cells (setting [1]) and 33 nM in the test on SUDHL10 cells (setting [3]). The values for the IC50 on BCL-2 and in the test on AMO-1 cells (setting [2]) were 19600 nM and 35.8 nM, respectively.

Consider `COCCC1OCCCCn2c(C(=O)O)c(CCCOc3cccc4ccccc34)c3ccc(Cl)c(c32)-c2c1nn(C)c2C` (racemic) [Example 37, (rac)-4-chloro-(15-rac)-(2-methoxyethyl)-2,3-dimethyl-7-{3-[(naphthalen-1-yl)oxy]propyl}-2,10,11,12,13,15-hexahydropyrazolo[4′,3′:9,10][1,6]oxazacycloundecino[8,7,6-hi]indole-8-carboxylic Acid], for which the EC50 was found to be 250 nM in the test with SUDHL5 cells (setting [1]) and 210 nM in the test with SUDHL10 cells (setting [3]). In addition, the 50% inhibitory concentration (IC50) at BCL-2 is greater than 20000 nM; in the test on AMO-1 cells (setting [2]) it was 536 nM.

Take `Cc1c2c(nn1C)C(CCO)OCCCCn1c(C(=O)O)c(CCCOc3cccc4ccccc34)c3ccc(Cl)c-2c31` (single isomer, unassigned; enantiomer 1) [Example 31, (+)-4-chloro-15-(2-hydroxyethyl)-2,3-dimethyl-7-{3-[(naphthalen-1-yl)oxy]propyl}-2,10,11,12,13,15-hexahydropyrazolo[4′,3′:9,10][1,6]oxazacycloundecino[8,7,6-hi]indole-8-carboxylic Acid (Enantiomer 1)]: the EC50 in the test on SUDHL5 cells (caspase-3/7 induction, 3 h, read-out: Caspase SUDHL5 EC50 (median)) was found to be 280 nM; in the test with SUDHL10 cells (caspase-3/7 induction, 3 h, read-out: Caspase SUDHL10 EC50 (median)), 240 nM. Also, the 50% inhibitory concentration (IC50) at BCL-2 is greater than 20000 nM; in the test with AMO-1 cells (72 h, CellTiter-Glo, read-out: Antiproli AMO-1 IC50 median), 326 nM.

For `CCc1c2c(nn1C)C(c1ccccc1)OCCCCn1c(C(=O)O)c(CCCOc3cccc4cc(F)ccc34)c3ccc(Cl)c-2c31` (racemic) [Example 59, (rac)-4-chloro-3-ethyl-7-{3-[(6-fluoronaphthalen-1-yl)oxy]propyl}-2-methyl-(15-rac)-phenyl-2,10,11,12,13,15-hexahydropyrazolo[4′,3′:9,10][1,6]oxazacycloundecino[8,7,6-hi]indole-8-carboxylic Acid], the EC50 in the test with SUDHL5 cells (setting [1]) worked out at 430 nM; in the test on SUDHL10 cells (setting [3]), 570 nM. Moreover, the values for the IC50 at BCL-2 and in the test with AMO-1 cells (setting [2]) were 13200 nM and 753 nM, respectively.

On to `Cc1c2c(nn1C)C(C1CC1)OCCCCn1c(C(=O)O)c(CCCOc3cccc4ccccc34)c3ccc(Cl)c-2c31` (single isomer, unassigned; enantiomer 1) [Example 35, (+)-4-chloro-15-cyclopropyl-2,3-dimethyl-7-{3-[(naphthalen-1-yl)oxy]propyl}-2,10,11,12,13,15-hexahydropyrazolo[4′,3′:9,10][1,6]oxazacycloundecino[8,7,6-hi]indole-8-carboxylic Acid N-ethylethanamine Salt (Enantiomer 1)], for which the EC50 in the test on SUDHL5 cells (setting [4]) was determined as 2100 nM; in the test on SUDHL10 cells (setting [6]) it was 5900 nM. The IC50 on BCL-2 was greater than 20000 nM; in the test on AMO-1 cells (setting [5]), 3710 nM.

Take `Cc1c2c(nn1C)C(CCN1CCOCC1)OCCCCn1c(C(=O)O)c(CCCOc3cccc4cc(F)ccc34)c3ccc(Cl)c-2c31` (single isomer, unassigned; enantiomer 1) [Example 17, 4-chloro-7-{3-[(6-fluoronaphthalen-1-yl)oxy]propyl}-2,3-dimethyl-15-[2-(morpholin-4-yl)ethyl]-2,10,11,12,13,15-hexahydropyrazolo[4′,3′:9,10][1,6]oxazacycloundecino[8,7,6-hi]indole-8-carboxylic Acid—N-ethylethanamine (Enantiomer 1)]: the EC50 in the test on SUDHL5 cells (setting [7]) was determined as 5.8 nM; with SUDHL10 cells (setting [9]), 9.7 nM. For the same molecule, the concentration for half-maximal inhibition (IC50) on BCL-2 was greater than 20000 nM; in the test on AMO-1 cells (setting [8]), 28.2 nM.

With `Cc1c2c(nn1C)C(C1CC1)OCCCCn1c(C(=O)O)c(CCCOc3cccc4ccccc34)c3ccc(Cl)c-2c31` (racemic) [Example 28, (rac)-4-Chloro-15-cyclopropyl-2,3-dimethyl-7-{3-[(naphthalen-1-yl)oxy]propyl}-2,10,11,12,13,15-hexahydropyrazolo[4′,3′:9,10][1,6]oxazacycloundecino[8,7,6-hi]indole-8-carboxylic Acid], the results for the EC50 in the test on SUDHL5 cells (setting [1]) and in the test with SUDHL10 cells (setting [3]) were 2800 nM and 7200 nM, respectively. Besides, the values for the IC50 at BCL-2 and in the test on AMO-1 cells (setting [2]) were greater than 20000 nM and 10900 nM, respectively.

For the molecule `Cc1c2c(nn1C)C(CCN1CCOCC1)OCCCCn1c(C(=O)O)c(CCCOc3cccc4cc(F)ccc34)c3ccc(F)c-2c31` (single isomer, unassigned; enantiomer 1) [Example 20, 4-fluoro-7-{3-[(6-fluoronaphthalen-1-yl)oxy]propyl}-2,3-dimethyl-15-[2-(morpholin-4-yl)ethyl]-2,10,11,12,13,15-hexahydropyrazolo[4′,3′:9,10][1,6]oxazacycloundecino[8,7,6-hi]indole-8-carboxylic Acid—N-ethylethanamine (Enantiomer 1)], the EC50 is 29 nM in the test on SUDHL5 cells (setting [7]) and 32 nM with SUDHL10 cells (setting [9]). The concentration for half-maximal inhibition (IC50) is greater than 20000 nM on BCL-2 and 94.5 nM in the test with AMO-1 cells (setting [8]).

For the molecule `CCc1c2c(nn1C)C(CCOC)OCCCCn1c(C(=O)O)c(CCCOc3cccc4cc(F)ccc34)c3ccc(Cl)c-2c31` (single isomer, unassigned; enantiomer 1) [Example 42, (+)-4-chloro-3-ethyl-7-{3-[(6-fluoronaphthalen-1-yl)oxy]propyl}-15-(2-methoxyethyl)-2-methyl-2,10,11,12,13,15-hexahydropyrazolo[4′,3′:9,10][1,6]oxazacycloundecino[8,7,6-hi]indole-8-carboxylic Acid—N-ethylethanamine Salt (Enantiomer 1)], the figures for the EC50 with SUDHL5 cells (setting [4]) and with SUDHL10 cells (setting [6]) were 14 nM and 52 nM, respectively. The IC50 at BCL-2 was greater than 20000 nM; in the test on AMO-1 cells (setting [5]), 96.9 nM.

Source of the values: US11440923B2, “Substituted macrocyclic indole derivatives” (Bayer Aktiengesellschaft, priority 2017, dated 2022).
